According to patent US6716851B2, “Substituted 2-aryl-4-arylaminopyrimidines and analogs as activators or caspases and inducers of apoptosis and the use thereof” (Cytovia, Inc., priority 2000, dated 2004):

Tests used:
T-47D cells = test: Caspase cascade activation (N-(Ac-DEVD)-N'-ethoxycarbonyl-R110 fluorogenic substrate) in T-47D cells; assay type: cell-based, Human; settings: 48 h incubation; for EC50: Homo sapiens, T47D, caspase activation potency, read-out: T47 EC50; for T47 Ratio 48 hr: caspase activity: ratio of net RFU of test compound to control
Procedure: (§1) Human breast cancer cell lines T-47D and ZR-75-1 were grown according to media component mixtures designated by American Type Culture Collection +10% FCS (Invitrogen Corporation, Life Technologies division), in a 5% CO2-95% humidity incubator at 37° C. T-47D and ZR-75-1 cells were maintained at a cell density between 50 and 80% confluency at a cell density of 0.1 to 0.6×10^6 cells/ml. Cells were harvested at 600× g and resuspended at 0.65×10^6 cells/ml into appropriate media +10% FCS. An aliquot of […] of cells was added to a well of a […] microtiter plate containing 2.5 μl of a 10% DMSO in RPMI-1640 media solution containing 0.16 to 100 μM of 4-(3-methoxyanilino)-2-(2-pyridinyl)-6-(trifluoromethyl)pyrimidine or other test compound (0.016 to 10 μM final). An aliquot of 22.5 μl of cells was added to a well of a 384-well microtiter plate containing 2.5 μl of a 10% DMSO in RPMI-1640 media solution without test compound as the control sample. The samples were mixed by agitation and then incubated at 37° C. for 48 h in a 5% CO2-95% humidity incubator. After incubation, the samples were removed from the incubator and 25 μl of a solution containing 14 μM of N-(Ac-DEVD)-N′-ethoxycarbonyl-R110 fluorogenic substrate (Cytovia, Inc.; WO99/18856), 20% sucrose (Sigma), 20 mM DTT (Sigma), 200 mM NaCl (Sigma), 40 mM Na PIPES buffer pH 7.2 (Sigma), and 500 μg/ml lysolecithin (Calbiochem) was added. The samples were mixed by agitation and incubated at room temperature. Using a fluorescent plate reader (Model SpectraMax Gemini, Molecular Devices), an initial reading (T=0) was made approximately 1-2 min after addition of the substrate solution, employing excitation at 485 nm and emission at 530 nm, to determine the background fluorescence of the control sample. After the 3 h incubation, the samples were read for fluorescence as above (T=3 h).
(§2) The Relative Fluorescence Unit values (RFU) were used to calculate the sample readings as follows:
(§3) RFU(T=3h)−Control RFU(T=0)=Net RFU(T=3h)
(§4) The activity of caspase cascade activation was determined by the ratio of the net RFU value for 4-(3-methoxyanilino)-2-(2-pyridinyl)-6-(trifluoromethyl)pyrimidine or other test compound to that of control samples. The EC50 (nM) was determined by a sigmoidal dose-response calculation (Prism 2.0, GraphPad Software Inc.).

ZR-75-1 cells = test: Caspase cascade activation (N-(Ac-DEVD)-N'-ethoxycarbonyl-R110 fluorogenic substrate) in ZR-75-1 cells; assay type: cell-based, Human; settings: ZR-75-1, 48 h incubation; for EC50: Homo sapiens, caspase activation potency; for ZR Ratio 48 hr: caspase activity: ratio of net RFU of test compound to control
Procedure: as §1, §2, §3, §4

EC50 (T-47D cells) [nM] | EC50 (ZR-75-1 cells) [nM] | Structure (SMILES) | T47 Ratio 48 hr (T-47D cells) | ZR Ratio 48 hr (ZR-75-1 cells)
> 5000 | > 5000 | Fc1c(F)c(F)c(Oc2cccc(Nc3cc(C(F)(F)F)nc(-c4cccnc4)n3)c2)c(F)c1F [Example 62, 4-[3-(2,3,4,5,6-Pentafluorophenoxy)anilino]-2-(3-pyridinyl)-6-(trifluoromethyl)pyrimidine] | 1.6 | 1.3
18 | 43 | COc1ccc(OC)c(Nc2cc(C(F)(F)F)nc(-c3ccccn3)n2)c1 [Example 63, 4-(2,5-Dimethoxyanilino)-2-(2-pyridinyl)-6-(trifluoromethyl)pyrimidine] | 8.9 | 9.6
> 5000 | > 5000 | O=S(=O)(c1ccccc1)c1cccc(Nc2cc(C(F)(F)F)nc(-c3cccnc3)n2)c1 [Example 65, 4-[3-(Phenylsulfone)anilino]-2-(3-pyridinyl)-6-(trifluoromethyl)pyrimidine] | 1.7 | 1.7
> 5000 | > 5000 | O=C(Nc1ccccc1)c1cccc(Nc2cc(C(F)(F)F)nc(-c3cccnc3)n2)c1 [Example 66, 4-[3-(N-phenylamide)anilino]-2-(3-pyridinyl)-6-(trifluoromethyl)pyrimidine] | 1.2 | 0.9
> 5000 | > 5000 | FC(F)(F)c1cc(Nc2cccc(Oc3ccccc3)c2)nc(-c2cccnc2)n1 [Example 67, 4-(3-Phenoxyanilino)-2-(3-pyridinyl)-6-(trifluoromethyl)pyrimidine] | 1.5 | 1.2
247 | 130 | Cc1ccc(C)c(Nc2cc(C(F)(F)F)nc(-c3cccnc3)n2)c1 [Example 68, 4-(2,5-Dimethylanilino)-2-(3-pyridinyl)-6-(trifluoromethyl)pyrimidine] | 20.9 | 17.9
382 | 127 | Cl.Oc1cccc(Nc2cc(C(F)(F)F)nc(-c3ccccn3)n2)c1 [Example 69, 4-(3-Hydroxyanilino)-2-(2-pyridinyl)-6-(trifluoromethyl)pyrimidine hydrochloride] | 14.2 | 10.9
> 5000 | 10000 | COc1cccc(Nc2cc(C(F)(F)F)nc(-c3ccccc3)n2)c1 [Example 73, 4-(3-Methoxyanilino)-2-phenyl-6-(trifluoromethyl)pyrimidine] | 1.6 | 2.6
364 | 326 | COc1cccc(Nc2cc(C(F)(F)F)nc(-c3cnccn3)n2)c1 [Example 74, 4-(3-Methoxyanilino)-2-(2-pyrazinyl)-6-(trifluoromethyl)pyrimidine] | 16.4 | 13.1
2290 | 3280 | COc1ccc(OC)c(Nc2cc(C(F)(F)F)nc(-c3ccccc3)n2)c1 [Example 75, 4-(2,5-Dimethoxyanilino)-2-phenyl-6-(trifluoromethyl)pyrimidine] | 16.3 | 7.8
64 | 243 | COc1ccc(C)c(Nc2cc(C(F)(F)F)nc(-c3cnccn3)n2)c1 [Example 80, 4-(5-Methoxy-2-methylanilino)-2-(2-pyrazinyl)-6-(trifluoromethyl)pyrimidine] | 8.5 | 5.9
5050 | 5500 | COc1ccc(Cl)c(Nc2cc(C(F)(F)F)nc(-c3ccccc3)n2)c1 [Example 81, 4-(2-Chloro-5-methoxyanilino)-2-phenyl-6-(trifluoromethyl)pyrimidine] | 12.7 | 5.0
> 5000 | 2830 | COc1ccc(Oc2ccccc2)cc1Nc1cc(C(F)(F)F)nc(-c2cccnc2)n1 [Example 85, 4-(2-Methoxy-5-phenoxyanilino)-2-(3-pyridinyl)-6-(trifluoromethyl)pyrimidine] | 1.7 | 6.7
< 75 | < 75 | COc1ccc(C)cc1Nc1cc(C(F)(F)F)nc(-c2cccnc2)n1 [Example 87, 4-(2-Methoxy-5-methylanilino)-2-(3-pyridinyl)-6-(trifluoromethyl)pyrimidine] | 19.2 | 16.9
2320 | 1220 | Cc1ccc(F)cc1Nc1cc(C(F)(F)F)nc(-c2cccnc2)n1 [Example 88, 4-(5-Fluoro-2-methylanilino)-2-(3-pyridinyl)-6-(trifluoromethyl)pyrimidine] | 9.8 | 8.0
2740 | 1600 | COc1ccc(C(F)(F)F)cc1Nc1cc(C(F)(F)F)nc(-c2cccnc2)n1 [Example 89, 4-(2-Methoxy-5-trifluoromethylanilino)-2-(3-pyridinyl)-6-(trifluoromethyl)pyrimidine] | 8.7 | 9.8
1440 | 788 | Cc1ccc(N)cc1Nc1cc(C(F)(F)F)nc(-c2cccnc2)n1.Cl [Example 91, 4-(5-Amino-2-methylanilino)-2-(3-pyridinyl)-6-(trifluoromethyl)pyrimidine hydrochloride] | 11.7 | 8.8
363 | 285 | CCOc1cccc(Nc2cc(C(F)(F)F)nc(-c3ccccn3)n2)c1 [Example 92, 4-(3-Ethoxyanilino)-2-(2-pyridinyl)-6-(trifluoromethyl)pyrimidine] | 16.8 | 12.4
> 5000 | 2030 | CCc1cccc(Nc2cc(C(F)(F)F)nc(-c3ccccn3)n2)c1 [Example 93, 4-(3-Ethylanilino)-2-(2-pyridinyl)-6-(trifluoromethyl)pyrimidine] | 2.0 | 8.2
113 | 148 | COc1ccc(Cl)c(Nc2cc(C(F)(F)F)nc(-c3ccccn3)n2)c1 [Example 95, 4-(2-Chloro-5-methoxyanilino)-2-(2-pyridinyl)-6-(trifluoromethyl)pyrimidine] | 11.6 | 8.6
> 5000 | 2760 | CSc1cccc(Nc2cc(C(F)(F)F)nc(-c3ccccn3)n2)c1 [Example 96, 4-(3-Methylmercaptoanilino)-2-(2-pyridinyl)-6-(trifluoromethyl)pyrimidine] | 1.4 | 4.9
659 | 717 | Cl.Oc1cccc(Nc2cc(C(F)(F)F)nc(-c3cccnc3)n2)c1 [Example 97, 4-(3-Hydroxyanilino)-2-(3-pyridinyl)-6-(trifluoromethyl)pyrimidine hydrochloride] | 14.5 | 6.7
512 | 701 | CCOc1ccc(OCC)c(Nc2cc(C(F)(F)F)nc(-c3cccnc3)n2)c1 [Example 102, 4-(2,5-Diethoxyanilino)-2-(3-pyridinyl)-6-(trifluoromethyl)pyrimidine] | 8.0 | 7.4
